In patent US6288277A, “Benzylamine and phenylethylamine derivatives, processes for preparing the same and their use as medicaments” (Boehringer Ingelheim Pharma KG, priority 1997, dated 2001) one finds Ki data, which are given here for 30 compounds.

What is called Ki is a measure of affinity in units of concentration, obtained from inhibition or displacement.

The target in this experiment is LTB4-receptor (Homo sapiens, UniProt Q15722). Description: Ki (LTB4-receptor; tests as described in WO 93/16036, pages 15 to 17). It is filed as binding.

Structures can show the parent of a compound that is named as a salt.

Chain of LTB4-receptor (Q15722 whole entry): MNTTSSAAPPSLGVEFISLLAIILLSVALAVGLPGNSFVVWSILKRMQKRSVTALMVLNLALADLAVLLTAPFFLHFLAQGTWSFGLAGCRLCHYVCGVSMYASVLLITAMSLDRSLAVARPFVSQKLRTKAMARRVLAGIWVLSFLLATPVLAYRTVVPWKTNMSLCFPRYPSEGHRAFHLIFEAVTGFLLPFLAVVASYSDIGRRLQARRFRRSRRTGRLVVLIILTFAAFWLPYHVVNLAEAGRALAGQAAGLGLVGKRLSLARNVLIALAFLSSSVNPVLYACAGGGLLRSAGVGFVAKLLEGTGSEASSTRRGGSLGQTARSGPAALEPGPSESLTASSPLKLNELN

Compound `CC(C)(c1ccccc1)c1ccc(OCc2cccc(COc3ccc(CN)cc3)c2)cc1` displayed an inhibition constant (Ki) of 16.2 nM.
In the case of `NCc1ccc(OCc2cccc(COc3cccc(C(=O)c4ccccc4)c3)c2)cc1`, the affinity, expressed as Ki, was 13.8 nM.
With `NCc1ccc(OCc2cccc(COc3ccc(C4(c5ccc(O)cc5)CCC4)cc3)c2)cc1` the figure was 11.1 nM; with `CC(c1ccc(O)cc1)c1ccc(OCc2cccc(COc3ccc(CN)cc3)c2)cc1` (stereo not drawn), 21.5 nM; with `NCc1ccc(OCc2cccc(COc3ccc(S(=O)(=O)c4ccc(O)cc4)cc3)c2)cc1`, 1.9 nM.
With `NCc1ccc(OCc2cccc(COc3ccc(Sc4ccc(O)cc4)cc3)c2)cc1` the figure was 28.7 nM.
In the case of `NCc1ccc(OCc2cccc(COc3ccc([S+]([O-])c4ccc(O)cc4)cc3)c2)cc1` (stereo not drawn), the inhibition constant (Ki) is 1.6 nM.
With `CC(C)(c1ccc(O)cc1)c1ccc(OCc2cccc(COc3ccc(CN)cc3)c2F)cc1` the figure was 27.9 nM; with `CC(C)(c1ccc(OCc2cccc(COc3ccc(CN)cc3)c2)cc1)c1ccc(O[C@@H]2O[C@H](CO)[C@@H](O)[C@H](O)[C@H]2O)cc1`, 0.55 nM.
The same measure for `NCc1ccc(OCc2cccc(COc3ccc(Oc4ccc(O)cc4)cc3)c2)cc1`: 59.7 nM.
The same measure for `Cc1cc(C(C)(C)c2ccc(OCc3cccc(COc4ccc(CN)cc4)c3)c(C)c2)ccc1O`: 32.5 nM; for `CC(C)(c1ccc(O)cc1)c1ccc(C(C)(C)c2ccc(OCc3cccc(COc4ccc(CN)cc4)c3)cc2)cc1`: 50.8 nM; for `CCOC(=O)CCC(C)(c1ccc(O)cc1)c1ccc(OCc2cccc(COc3ccc(CN)cc3)c2)cc1` (stereo not drawn): 14.9 nM.
`CC(CCC(=O)O)(c1ccc(O)cc1)c1ccc(OCc2cccc(COc3ccc(CN)cc3)c2)cc1` (stereo not drawn) yielded an inhibition constant Ki of 0.5 nM.
With `COC(=O)c1ccc(C(C)(C)c2ccc(OCc3cccc(COc4ccc(CN)cc4)c3)cc2)cc1` the figure was 11.4 nM; with `CC(C)N(C(=O)c1ccc(C(C)(C)c2ccc(OCc3cccc(COc4ccc(CN)cc4)c3)cc2)cc1)C(C)C`, 13.1 nM.
Consider `CCOC(=O)NCc1ccc(OCc2cccc(COc3ccc(C(C)(C)c4ccc(O)cc4)cc3)c2)cc1`, for which the inhibitory constant (Ki) amounted to 263 nM.
`CCOC(=O)C(C)(c1ccc(O)cc1)c1ccc(OCc2cccc(COc3ccc(CN)cc3)c2)cc1` (stereo not drawn) registered a Ki of 2.85 nM.
Compound `CCOC(=O)NCC(C)(C)c1ccc(OCc2cccc(COc3ccc(CN)cc3)c2)cc1` gave an inhibition constant Ki of 4.5 nM.
The compound `CC(C)(CN)c1ccc(OCc2cccc(COc3ccc(CN)cc3)c2)cc1` yielded an inhibition constant (Ki) of 67.3 nM.
With `CC(C)(C)Oc1ccc(OCc2cccc(COc3ccc(CN)cc3)c2)cc1` the figure was 7.5 nM; with `CC(C)(c1ccc(OCc2cccc(COc3ccc(CN)cc3)c2)cc1)c1ccc(C(=O)N2CCCCC2)cc1`, 0.86 nM; with `CC(C)(c1ccccc1)c1ccc(OCc2cccc(COc3ccc(CN)cc3)c2)c(O)c1`, 17.6 nM.
In turn, `CC(C)(c1ccccc1)c1ccc(O)c(OCc2cccc(COc3ccc(CN)cc3)c2)c1` displayed a Ki of 21.9 nM.
As for `NCc1ccc(OCc2cccc(COc3ccc(Cc4ccc(O)cc4)cc3)c2)cc1`, the affinity, expressed as Ki, was 38.6 nM.
With `NCc1ccc(OCc2cccc(COc3ccc(C(c4ccc(O)cc4)(C(F)(F)F)C(F)(F)F)cc3)c2)cc1` the figure was 21.8 nM.
As to `CC(C)(c1ccc(O)cc1F)c1ccc(OCc2cccc(COc3ccc(CN)cc3)c2)cc1F`, the Ki is 10.6 nM.
Compound `CC(C)(c1ccc(O)cc1)c1ccc(OCc2cccc(COc3ccc(CN)cc3)c2)c(O)c1` came in with a Ki of 2.4 nM.
With `CC(C)(c1ccccc1)c1ccc(OCc2cccc(COc3ccc(CCN)cc3)c2)cc1` [2-[4-[[3-[[4-[1-phenyl-1-methylethyl]phenoxy]methyl]phenyl]methoxy]]-ethylamine hydrochloride] the figure was 30.6 nM.
With `CC(C)(c1ccc(O)cc1)c1ccc(OCc2cccc(COc3ccc(CN)cc3)c2)cc1` [4-[[3-[[4-[1-(4-Hydroxyphenyl)-1-methylethyl]phenoxy]methyl]phenyl]methoxy]-benzylamine hydrochloride] the figure was 15.7 nM.
